Counter-ions that a name gives are not always drawn.
Molecular target: T1, proton pump (H+/K+-ATPase) (Sus scrofa, UniProt P19156)
T1 construct: Gastric vesicles were prepared from hog stomach via centrifugal separation; from tissue; host or cells: hog stomach (gastric vesicles, method of Rabon et al. 1988)
Test: Measurement of inhibitory effects on proton pump (H+/K+-ATPase) activities
Assay type: biochemical
Conditions: hog gastric vesicles, K+-specific H+/K+-ATPase activity, Tris-HCl buffer pH 7.4, 37° C. for 40 minutes, malachite green Pi readout
How it was run: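 Hog gastric vesicles in 60 mmol/l Tris-HCl pH 7.4 with 0.5% DMSO were treated with compounds at room temperature; reaction was started with 10 μl of 10 mmol/l ATP stock. Released Pi was read at 570 nm, K+-specific activity taken as the ±K+ difference. IC50 from 4-parameter logistic fit.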

T1 sequence (P19156 whole entry): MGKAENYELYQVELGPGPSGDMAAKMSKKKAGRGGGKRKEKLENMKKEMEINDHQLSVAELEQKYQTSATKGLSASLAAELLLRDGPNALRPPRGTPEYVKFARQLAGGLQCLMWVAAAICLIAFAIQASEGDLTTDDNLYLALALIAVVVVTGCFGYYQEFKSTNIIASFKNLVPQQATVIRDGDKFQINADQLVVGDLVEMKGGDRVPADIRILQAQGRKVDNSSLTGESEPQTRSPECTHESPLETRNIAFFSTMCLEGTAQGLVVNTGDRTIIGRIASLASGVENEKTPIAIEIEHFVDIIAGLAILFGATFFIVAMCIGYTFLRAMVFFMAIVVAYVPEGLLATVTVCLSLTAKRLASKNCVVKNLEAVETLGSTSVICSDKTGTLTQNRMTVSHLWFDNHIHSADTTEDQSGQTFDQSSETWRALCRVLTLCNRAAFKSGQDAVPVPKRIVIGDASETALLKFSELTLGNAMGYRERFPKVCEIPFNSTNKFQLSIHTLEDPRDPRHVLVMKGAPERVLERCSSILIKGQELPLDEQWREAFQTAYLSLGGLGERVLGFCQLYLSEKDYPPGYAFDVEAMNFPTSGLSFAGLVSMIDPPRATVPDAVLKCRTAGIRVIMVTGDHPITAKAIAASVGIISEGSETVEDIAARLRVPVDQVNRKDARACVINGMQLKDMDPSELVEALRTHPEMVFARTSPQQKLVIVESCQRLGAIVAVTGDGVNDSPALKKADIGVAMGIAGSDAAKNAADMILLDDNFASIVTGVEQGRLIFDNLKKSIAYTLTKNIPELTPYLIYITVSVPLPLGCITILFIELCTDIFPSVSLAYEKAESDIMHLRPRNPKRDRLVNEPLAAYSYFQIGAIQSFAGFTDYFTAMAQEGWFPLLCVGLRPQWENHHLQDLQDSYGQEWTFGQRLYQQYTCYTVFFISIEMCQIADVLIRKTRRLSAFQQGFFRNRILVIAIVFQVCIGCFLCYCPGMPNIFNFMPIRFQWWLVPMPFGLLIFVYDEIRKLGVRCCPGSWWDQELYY
T1 sequence (P18434 whole entry partner): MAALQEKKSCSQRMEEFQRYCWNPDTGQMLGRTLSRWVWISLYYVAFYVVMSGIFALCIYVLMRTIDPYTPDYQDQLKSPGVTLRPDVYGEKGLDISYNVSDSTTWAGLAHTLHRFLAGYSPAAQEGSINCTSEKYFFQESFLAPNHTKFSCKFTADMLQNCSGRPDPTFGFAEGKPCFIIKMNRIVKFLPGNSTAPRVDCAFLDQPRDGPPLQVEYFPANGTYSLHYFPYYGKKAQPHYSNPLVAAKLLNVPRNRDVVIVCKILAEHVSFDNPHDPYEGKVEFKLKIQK

SMILES	IC50 [µM]
CNCc1cn(S(=O)(=O)c2cccc(OC(F)(F)F)c2)c2cc(Nc3ccc(OC(F)(F)F)cc3OC)ccc12 [Example 202, N-(2-methoxy-4-(trifluoromethoxy)phenyl)-3-((methylamino)methyl)-1-((3-(trifluoromethoxy)phenyl)sulfonyl)-1H-indol-6-amine hydrochloride]	0.58
CNCc1cn(S(=O)(=O)c2cccc(OC(F)(F)F)c2)c2cc(Nc3ccc(C)c(F)c3F)ccc12 [Example 203, N-(2,3-difluoro-4-methylphenyl)-3-((methylamino)methyl)-1-((3-(trifluoromethoxy)phenyl)sulfonyl)-1H-indol-6-amine hydrochloride]	0.45
CNCc1cn(S(=O)(=O)c2ccc(OC(F)(F)F)cc2)c2cc(Nc3ccc(C)cc3F)ccc12 [Example 206, N-(2-fluoro-4-methylphenyl)-3-((methylamino)methyl)-1-((4-(trifluoromethoxy)phenyl)sulfonyl)-1H-indol-6-amine hydrochloride]	2.55
CNCc1cn(S(=O)(=O)c2ccc(OC(F)(F)F)cc2)c2cc(Nc3ccc(C)cc3Cl)ccc12 [Example 207, N-(2-chloro-4-methylphenyl)-3-((methylamino)methyl)-1-((4-(trifluoromethoxy)phenyl)sulfonyl)-1H-indol-6-amine hydrochloride]	0.55
CNCc1cn(S(=O)(=O)c2cncc(F)c2)c2cc(Nc3ccc(OC(F)(F)F)cc3Cl)ccc12 [Example 215, N-(2-chloro-4-(trifluoromethoxy)phenyl)-1-((5-fluoropyridin-3-yl)sulfonyl)-3-((methylamino)methyl)-1H-indol-6-amine hydrochloride]	0.82
CNCc1cn(S(=O)(=O)c2ccc(OC)cc2)c2cc(Nc3ccc(C)cc3Cl)ccc12 [Example 219, N-(2-chloro-4-methylphenyl)-1-((4-methoxyphenyl)sulfonyl)-3-((methylamino)methyl)-1H-indol-6-amine hydrochloride]	0.27
CNCc1cn(S(=O)(=O)c2ccc(C(F)(F)F)cc2)c2cc(Nc3ccc(C)cc3Cl)ccc12 [Example 221, N-(2-chloro-4-methylphenyl)-3-((methylamino)methyl)-1-((4-(trifluoromethyl)phenyl)sulfonyl)-1H-indol-6-amine hydrochloride]	1.58
CNCc1cn(S(=O)(=O)c2ccccc2)c2cc(Nc3ccc(C)cc3F)ccc12 [Example 222, N-(2-fluoro-4-methylphenyl)-3-((methylamino)methyl)-1-(phenylsulfonyl)-1H-indol-6-amine hydrochloride]	1.84
CNCc1cn(S(=O)(=O)c2ccccc2C)c2cc(Nc3ccc(C)cc3F)ccc12 [Example 223, N-(2-fluoro-4-methylphenyl)-3-((methylamino)methyl)-1-(o-tolylsulfonyl)-1H-indol-6-amine hydrochloride]	1.29
CNCc1cn(S(=O)(=O)c2ccccc2F)c2cc(Nc3ccc(C)cc3F)ccc12 [Example 224, N-(2-fluoro-4-methylphenyl)-1-((2-fluorophenyl)sulfonyl)-3-((methylamino)methyl)-1H-indol-6-amine hydrochloride]	3.3
CNCc1cn(S(=O)(=O)c2ccccc2Cl)c2cc(Nc3ccc(C)cc3F)ccc12 [Example 225, 1-((2-chlorophenyl)sulfonyl)-N-(2-fluoro-4-methylphenyl)-3-((methylamino)methyl)-1H-indol-6-amine hydrochloride]	2.06
CNCc1cn(S(=O)(=O)c2cccc(C#N)c2)c2cc(Nc3ccc(C)cc3F)ccc12 [Example 227, 3-((6-((2-fluoro-4-methylphenyl)amino)-3-((methylamino)methyl)-1H-indol-1-yl)sulfonyl)benzonitrile hydrochloride]	6.49
CNCc1cn(S(=O)(=O)c2cccc(Br)c2)c2cc(Nc3ccc(C)cc3F)ccc12 [Example 228, 1-((3-bromophenyl)sulfonyl)-N-(2-fluoro-4-methylphenyl)-3-((methylamino)methyl)-1H-indol-6-amine hydrochloride]	0.9
CNCc1cn(S(=O)(=O)c2ccc(C)cc2)c2cc(Nc3ccc(C)cc3F)ccc12 [Example 229, N-(2-fluoro-4-methylphenyl)-3-((methylamino)methyl)-1-tosyl-1H-indol-6-amine hydrochloride]	1.11
CNCc1cn(S(=O)(=O)c2ccc(C(C)(C)C)cc2)c2cc(Nc3ccc(C)cc3F)ccc12 [Example 231, 1-((4-(tert-butyl)phenyl)sulfonyl)-N-(2-fluoro-4-methylphenyl)-3-((methylamino)methyl)-1H-indol-6-amine hydrochloride]	2.62
CNCc1cn(S(=O)(=O)c2ccc(-c3ccccc3)cc2)c2cc(Nc3ccc(C)cc3F)ccc12 [Example 232, 1-([1,1′-biphenyl]-4-ylsulfonyl)-N-(2-fluoro-4-methylphenyl)-3-((methylamino)methyl)-1H-indol-6-amine hydrochloride]	2.15
CNCc1cn(S(=O)(=O)c2ccc(Cl)cc2Cl)c2cc(Nc3ccc(C)cc3F)ccc12 [Example 235, 1-((2,4-dichlorophenyl)sulfonyl)-N-(2-fluoro-4-methylphenyl)-3-((methylamino)methyl)-1H-indol-6-amine hydrochloride]	2.89
CNCc1cn(S(=O)(=O)c2cc(C)ccc2C)c2cc(Nc3ccc(C)cc3F)ccc12 [Example 236, 1-((2,5-dimethylphenyl)sulfonyl)-N-(2-fluoro-4-methylphenyl)-3-((methylamino)methyl)-1H-indol-6-amine hydrochloride]	2.04
CNCc1cn(S(=O)(=O)c2ccc(Cl)c(Cl)c2)c2cc(Nc3ccc(C)cc3F)ccc12 [Example 238, 1-((3,4-dichlorophenyl)sulfonyl)-N-(2-fluoro-4-methylphenyl)-3-((methylamino)methyl)-1H-indol-6-amine hydrochloride]	2.56

More lines, in order of falling IC50, values ahead:

IC50 [µM]	SMILES
2.85	CNCc1cn(S(=O)(=O)c2cccc3ccccc23)c2cc(Nc3ccc(C)cc3F)ccc12 [Example 233, N-(2-fluoro-4-methylphenyl)-3-((methylamino)methyl)-1-(naphthalen-1-ylsulfonyl)-1H-indol-6-amine hydrochloride]
1.75	CNCc1cn(S(=O)(=O)c2cccc(OC(F)(F)F)c2)c2cc(Nc3ccc(C)nc3Cl)ccc12 [Example 205, N-(2-chloro-6-methylpyridin-3-yl)-3-((methylamino)methyl)-1-((3-(trifluoromethoxy)phenyl)sulfonyl)-1H-indol-6-amine hydrochloride]
1.75	CNCc1cn(S(=O)(=O)c2cc(C)cc(C)c2)c2cc(Nc3ccc(C)cc3F)ccc12 [Example 239, 1-((3,5-dimethylphenyl)sulfonyl)-N-(2-fluoro-4-methylphenyl)-3-((methylamino)methyl)-1H-indol-6-amine hydrochloride]
1.47	CNCc1cn(S(=O)(=O)c2cccc(Cl)c2Cl)c2cc(Nc3ccc(C)cc3F)ccc12 [Example 234, 1-((2,3-dichlorophenyl)sulfonyl)-N-(2-fluoro-4-methylphenyl)-3-((methylamino)methyl)-1H-indol-6-amine hydrochloride]
1.06	CNCc1cn(S(=O)(=O)c2ccc(OC(F)(F)F)cc2)c2cc(Nc3ccc(OC(F)(F)F)cc3C)ccc12 [Example 209, N-(2-methyl-4-(trifluoromethoxy)phenyl)-3-((methylamino)methyl)1-((4-(trifluoromethoxy)phenyl)sulfonyl)-1H-indol-6-amine hydrochloride]
0.99	CNCc1cn(S(=O)(=O)c2ccc(F)c(F)c2)c2cc(Nc3ccc(C)cc3F)ccc12 [Example 237, 1-((3,4-difluorophenyl)sulfonyl)-N-(2-fluoro-4-methylphenyl)-3-((methylamino)methyl)-1H-indol-6-amine hydrochloride]
0.91	CNCc1cn(S(=O)(=O)c2ccc(Cl)cc2)c2cc(Nc3ccc(C)cc3F)ccc12 [Example 230, 1-((4-chlorophenyl)sulfonyl)-N-(2-fluoro-4-methylphenyl)-3-((methylamino)methyl)-1H-indol-6-amine hydrochloride]
0.9	CNCc1cn(S(=O)(=O)c2cccc(OC(F)(F)F)c2)c2cc(Nc3ccc(OC(F)(F)F)cc3C)ccc12 [Example 200, N-(2-methyl-4-(trifluoromethoxy)phenyl)-3-((methylamino)methyl)-1-((3-(trifluoromethoxy)phenyl)sulfonyl)-1H-indol-6-amine hydrochloride]
0.66	CNCc1cn(S(=O)(=O)c2cccc(OC(F)(F)F)c2)c2cc(Nc3ccc(OC(F)(F)F)cc3Cl)ccc12 [Example 201, N-(2-chloro-4-(trifluoromethoxy)phenyl)-3-((methylamino)methyl)-1-((3-(trifluoromethoxy)phenyl)sulfonyl)-1H-indol-6-amine hydrochloride]
0.5	CNCc1cn(S(=O)(=O)c2cccc(OC(F)(F)F)c2)c2cc(Nc3ccc(C)nc3F)ccc12 [Example 204, N-(2-fluoro-6-methylpyridin-3-yl)-3-((methylamino)methyl)-1-((3-(trifluoromethoxy)phenyl)sulfonyl)-1H-indol-6-amine hydrochloride]
0.34	CNCc1cn(S(=O)(=O)c2cccc(OC(F)(F)F)c2)c2cc(Nc3ccc(OC)cc3F)ccc12 [Example 199, N-(2-fluoro-4-methoxyphenyl)-3-(methylamino)methyl)-1-((3-(trifluoromethoxy)phenyl)sulfonyl)-1H-indol-6-amine hydrochloride]
0.29	CNCc1cn(S(=O)(=O)c2ccc(OC(F)F)cc2)c2cc(Nc3ccc(C)cc3Cl)ccc12 [Example 220, N-(2-chloro-4-methylphenyl)-1-((4-(difluoromethoxy)phenyl)sulfonyl)-3-((methylamino)methyl)-1H-indol-6-amine hydrochloride]

From patent US9676714B2, “Sulfonylindole derivatives and method for preparing the same” (Daewoong Pharmaceutical Co., Ltd., priority 2013, dated 2017)
